Measurements taken from BigSolDB 2.1.

Structure (SMILES): Nc1cccnc1
- solubility (mole fraction) (in acetone, 288.15 K): 0.155
- solubility (mole fraction) (in acetone, 293.15 K): 0.194
- solubility (mole fraction) (in acetone, 298.15 K): 0.244
- solubility (mole fraction) (in acetone, 303.15 K): 0.305
- solubility (mole fraction) (in acetone, 308.15 K): 0.38
- solubility (mole fraction) (in acetone, 313.15 K): 0.468
- solubility (mole fraction) (in acetone, 318.15 K): 0.565
- solubility (mole fraction) (in acetone, 323.15 K): 0.668
- solubility (mole fraction) (in n-butyl acetate, 288.15 K): 0.432
- solubility (mole fraction) (in n-butyl acetate, 293.15 K): 0.481
- solubility (mole fraction) (in n-butyl acetate, 298.15 K): 0.537
- solubility (mole fraction) (in n-butyl acetate, 303.15 K): 0.591
- solubility (mole fraction) (in n-butyl acetate, 308.15 K): 0.65
- solubility (mole fraction) (in n-butyl acetate, 313.15 K): 0.712
- solubility (mole fraction) (in n-butyl acetate, 318.15 K): 0.77
- solubility (mole fraction) (in n-butyl acetate, 323.15 K): 0.835
